The test system of one assay is MDA-MB-231. Nature of the assay: Cytotoxicity against human MDA-MB-231 cells assessed as reduction in cell viability after 24 hrs by MTT assay. It is filed as functional, cell-based. The following applies: MDA-MB-231, 24 h.
Assay [1] has as its system A549. Nature of the assay: Cytotoxicity against human A549 cells assessed as reduction in cell viability after 24 hrs by MTT assay. The following applies: A549, 24 h. The format is functional, cell-based. (Tetrazolium dyes change colour on reduction, which living cells bring about.)
A further assay concerns MCF7. In words: Cytotoxicity against human MCF7 cells assessed as reduction in cell viability after 24 hrs by MTT assay. It is filed as functional, cell-based. The following applies: MCF7, 24 h.
For the next assay, the system named is HeLa. Nature of the assay: Cytotoxicity against human HeLa cells assessed as reduction in cell viability after 24 hrs by MTT assay. It is filed as functional, cell-based.
The subject of assay [2] is A549. Nature of the assay: Inhibition of RAS/MEK/ERK signalling in human A549 cells assessed as decrease in phosphorylated MEK1/2 level at 4 uM after 24 hrs by Western blot analysis. The format is cell-based. For orientation: Immunoblotting shows a protein as a band on a membrane.
Assay [3] has as its system A549. In words: Cell cycle arrest in human A549 cells assessed as accumulation at G0/G1 phase at 4 uM after 24 hrs by propidium iodide staining based flow cytometry (reference value: 69.5%). It is filed as functional.
Assay [4] deals with A549. Nature of the assay: Cell cycle arrest in human A549 cells assessed as accumulation at S phase at 4 uM after 24 hrs by propidium iodide staining based flow cytometry (reference value: 8.85%). The format is functional. Background: In flow cytometry, cells or beads pass a laser one at a time.
The test system of assay [5] is A549. Nature of the assay: Upregulation of PTEN expression in human A549 cells at 4 uM after 24 hrs by Cy-3 staining based immunoblot analysis. The format is functional, cell-based.
For assay [6], the system named is A549. Nature of the assay: Induction of autophagy in human A549 cells assessed as increase in Atg7 expression after 24 hrs by Western blot analysis. The format is functional, cell-based.
Assay [7] has as its system A549. In words: Cell cycle arrest in human A549 cells assessed as accumulation at subG1 phase at 4 uM after 24 hrs by propidium iodide staining based flow cytometry (reference value: 1.11%). The format is functional.
The subject of assay [8] is A549. In words: Inhibition of RAS/MEK/ERK signalling in human A549 cells assessed as decrease in phosphorylated ERK1/2 level at 4 uM after 24 hrs by Western blot analysis. The format is cell-based.
The test system of assay [9] is A549. In words: Inhibition of PI3K/Akt/mTOR signalling in human A549 cells assessed as downregulation of Akt expression at 4 uM after 24 hrs by Western blot analysis. It is filed as cell-based.
Assay [10] relates to A549. Nature of the assay: Cell cycle arrest in human A549 cells assessed as accumulation at G2/M phase at 4 uM after 24 hrs by propidium iodide staining based flow cytometry (reference value: 21.58%). The format is functional.
The test system of assay [11] is A549. Nature of the assay: Inhibition of PI3K/Akt/mTOR signalling in human A549 cells assessed as reduction in Akt phosphorylation at Ser-473 residue at 4 uM after 24 hrs by Western blot analysis. The format is cell-based.
In assay [12] the test system is A549. In words: Inhibition of PI3K/Akt/mTOR signalling in human A549 cells assessed as downregulation of PI3K expression at 4 uM after 24 hrs by Western blot analysis. The format is cell-based.
The subject of assay [13] is A549. Nature of the assay: Inhibition of PI3K/Akt/mTOR signalling in human A549 cells assessed as downregulation of mTOR expression at 4 uM after 24 hrs by Western blot analysis. The format is cell-based.
For assay [14], the system named is A549. In words: Induction of cell death in human A549 cells assessed as increase in LC3-2 expression after 24 hrs by Western blot analysis. It is filed as functional, cell-based.
Assay [15] deals with A549. In words: Induction of cell death in human A549 cells assessed as LC3-mediated cytoplasmic vacuolation by Hoechst staining based assay. It is filed as functional.

Active and inactive are the calls of the source. No cut-off for these calls is given here.

In general, IC50 refers to the concentration that inhibits the measured activity by half. With `OC1(C(F)(F)F)CS/C(=N\c2ccc(C(F)(F)F)cc2)N1CCc1ccccn1` (stereo unspecified), the IC50 amounted to 20.9 µM in the assay on MDA-MB-231, 12.8 µM in the assay with A549 [1], 25.3 µM with MCF7 and 21 µM with HeLa.
Turning to `OC1(C(F)(F)F)CS/C(=N\c2ccc(Cl)c(C(F)(F)F)c2)N1CCN1CCOCC1` (stereo unspecified), the inhibition result with A549 [2], in the assay with A549 [8], in the assay with A549 [9], in the assay on A549 [11], in the assay on A549 [12] and in the assay on A549 [13] was “Active” each time. For the same compound, the Activity in the assay on A549 [3] is 81.78%; with A549 [4], 1.89%; in the assay with A549 [7], 6.04%; in the assay with A549 [10] it was 10.63%. Also, the IC50 in the assay on MDA-MB-231 was 5.92 µM; in the assay on A549 [1], 4.15 µM; in the assay with MCF7, 18.2 µM; in the assay on HeLa it was 6.24 µM. Besides, the result in the assay on A549 [5], in the assay with A549 [6] and in the assay on A549 [14] was Active.
Regarding `OC1(C(F)(F)F)CS/C(=N\c2ccccc2)N1CCc1ccccn1` (stereo unspecified), the half-maximal inhibitory concentration (IC50) in the assay on MDA-MB-231 was 21.5 µM; with A549 [1], 20.1 µM; with MCF7, 25.9 µM; with HeLa it was 28.5 µM.
The corresponding values for `OC1(C(F)(F)F)CS/C(=N\c2ccc(F)cc2)N1c1ccc(F)cc1` (stereo unspecified) are 21.3 µM, 14.8 µM, 34.1 µM and 30.7 µM.
The corresponding values for `OC1(C(F)(F)F)CS/C(=N\c2ccc(C(F)(F)F)cc2)N1Cc1ccco1` (stereo unspecified) are 21.7 µM, 13.1 µM, 25.1 µM and 19.7 µM.
The corresponding values for `OC1(C(F)(F)F)CS/C(=N\c2ccccc2)N1CCN1CCOCC1` (stereo unspecified) are 23.8 µM, 21.2 µM, 37.4 µM and 26.1 µM.
Take `CCCN1/C(=N/c2ccccc2)SCC1(O)C(F)(F)F` (stereo unspecified): the 50% inhibitory concentration (IC50) was 18.7 µM with MDA-MB-231, 14.3 µM with A549 [1], 22.5 µM with MCF7 and 24.4 µM in the assay with HeLa.
Regarding `OC1(C(F)(F)F)CS/C(=N\c2ccc(Cl)c(C(F)(F)F)c2)N1Cc1cccs1` (stereo unspecified), the inhibition result with A549 [2], in the assay on A549 [8], in the assay with A549 [9], with A549 [11], in the assay with A549 [12] and with A549 [13] was “Active” throughout. Moreover, the outcome with A549 [15], with A549 [5], in the assay with A549 [6] and in the assay on A549 [14] was Active. In addition, the Activity in the assay on A549 [3] was 75.3%; in the assay with A549 [4], 5.81%; in the assay on A549 [7], 3.57%; in the assay on A549 [10], 16.15%. Also, the half-maximal inhibitory concentration (IC50) was found to be 4.48 µM in the assay with MDA-MB-231, 3.57 µM with A549 [1], 11.4 µM in the assay on MCF7 and 6.41 µM with HeLa.
As for `OC1(C(F)(F)F)CS/C(=N\c2ccccc2)N1Cc1ccco1` (stereo unspecified), the IC50 turned out to be 21.6 µM with MDA-MB-231, 8.26 µM in the assay on A549 [1], 29.4 µM with MCF7 and 24.8 µM in the assay with HeLa.
The corresponding values for `OC1(C(F)(F)F)CS/C(=N\c2ccc(F)c(Cl)c2)N1c1ccccc1` (stereo unspecified) are 19 µM, 16.8 µM, 22.9 µM and 19.9 µM.
The like results for `OC1(C(F)(F)F)CS/C(=N\c2ccccc2)N1C1CCCCC1` (stereo unspecified) were, in that order, 22.5 µM, 13.8 µM, 30.1 µM and 28.2 µM.
Regarding `OC1(C(F)(F)F)CS/C(=N\c2ccccc2)N1CCc1c[nH]c2ccccc12` (stereo unspecified), the IC50 was found to be 20.6 µM in the assay on MDA-MB-231, 10.6 µM in the assay on A549 [1], 26.6 µM in the assay with MCF7 and 27.7 µM in the assay on HeLa.
On to `OC1(C(F)(F)F)CS/C(=N\c2ccc(Cl)c(C(F)(F)F)c2)N1Cc1ccco1` (stereo unspecified), for which the inhibition entry with A549 [2], with A549 [8], with A549 [9], in the assay on A549 [11], in the assay on A549 [12] and in the assay with A549 [13] was “Active” in each case. Besides, the result with A549 [15], with A549 [5], in the assay on A549 [6] and in the assay on A549 [14] was Active. Moreover, the Activity turned out to be 79.77% with A549 [3], 4.11% in the assay on A549 [4], 4.99% in the assay with A549 [7] and 11.8% with A549 [10]. Moreover, the IC50 in the assay on MDA-MB-231 worked out at 5.12 µM; with A549 [1], 3.82 µM; with MCF7, 15.1 µM; with HeLa it was 5.84 µM.
Take `OC1(C(F)(F)F)CS/C(=N\c2ccccc2)N1c1ccccc1` (stereo unspecified): the IC50 in the assay on MDA-MB-231 was determined as 20.9 µM; with A549 [1] it was 18.6 µM; in the assay with MCF7, 25 µM; in the assay with HeLa, 29.4 µM.
As for `OC1(C(F)(F)F)CS/C(=N\c2cccc(C(F)(F)F)c2)N1c1cccc(C(F)(F)F)c1` (stereo unspecified), the inhibition result in the assay with A549 [2], in the assay on A549 [8], in the assay with A549 [9], in the assay on A549 [11], in the assay on A549 [12] and in the assay with A549 [13] was “Active” in each case. Further, the result in the assay on A549 [15], in the assay on A549 [5], in the assay with A549 [6] and in the assay on A549 [14] was Active. Also, the Activity with A549 [3] is listed as 86.61%; in the assay with A549 [4], 1.71%; in the assay on A549 [7], 3.81%; in the assay on A549 [10], 8.15%. For the same compound, the IC50 stood at 3.32 µM with MDA-MB-231, 2.84 µM in the assay on A549 [1], 6.69 µM in the assay on MCF7 and 3.57 µM in the assay on HeLa.
As for `COc1ccc(N2/C(=N/c3ccc(F)cc3)SCC2(O)C(F)(F)F)cc1` (stereo unspecified), the half-maximal inhibitory concentration (IC50) in the assay on MDA-MB-231 is 6.64 µM; with A549 [1] it was 4.58 µM; with MCF7, 28.7 µM; in the assay with HeLa it was 6.98 µM.
The like results for `OC1(C(F)(F)F)CS/C(=N\c2ccccc2)N1C1CC1` (stereo unspecified) were, in that order, 22.7 µM, 15.1 µM, 29.2 µM and 24.6 µM.
The corresponding values for `OC1(C(F)(F)F)CS/C(=N\c2ccc(F)cc2)N1c1ccccc1` (stereo unspecified) are 19.6 µM, 17.1 µM, 25.8 µM and 32.4 µM.
On to `OC1(C(F)(F)F)CS/C(=N\c2ccc(Cl)c(C(F)(F)F)c2)N1CCc1ccccn1` (stereo unspecified), for which the IC50 was 19.6 µM with MDA-MB-231, 6.02 µM in the assay on A549 [1], 11.3 µM in the assay on MCF7 and 7.12 µM in the assay with HeLa.
The like results for `COc1ccc(N2/C(=N/c3ccc(C(F)(F)F)cc3)SCC2(O)C(F)(F)F)cc1` (stereo unspecified) were, in that order, 20.6 µM, 15.2 µM, 29.2 µM and 16.8 µM.
With `CC(C)(C)N1/C(=N/c2ccc(Cl)c(C(F)(F)F)c2)SCC1(O)C(F)(F)F` (stereo unspecified), the inhibition result in the assay on A549 [2], with A549 [8], in the assay with A549 [9], in the assay with A549 [11], with A549 [12] and in the assay with A549 [13] was “Active” each time. Also, the Activity was 82.31% with A549 [3], 3.05% with A549 [4], 8.63% in the assay on A549 [7] and 6.79% in the assay with A549 [10]. The half-maximal inhibitory concentration (IC50) in the assay with MDA-MB-231 is 4.03 µM; in the assay with A549 [1] it was 3.26 µM; with MCF7 it was 32.3 µM; with HeLa, 5.54 µM. The outcome with A549 [5], in the assay on A549 [6] and in the assay with A549 [14] was Active.
Turning to `OC1(C(F)(F)F)CS/C(=N\c2ccccc2)N1Cc1cccs1` (stereo unspecified), the concentration for half-maximal inhibition (IC50) came out at 23.1 µM in the assay with MDA-MB-231, 11.1 µM with A549 [1], 33.8 µM in the assay with MCF7 and 24.8 µM in the assay on HeLa.

The values above are taken from ChEMBL document CHEMBL3817727, “Fluorinated thiazolidinols cause cell death in A549 lung cancer cells via PI3K/AKT/mTOR and MAPK/ERK signalling pathways” (Medchemcomm, 2016).
